Results on one compound are retold here after patent US10246466B2, “Diaryl macrocycles as modulators of protein kinases” (TP THERAPEUTICS, INC., priority 2014, dated 2019).

As usually defined, the Kd is the equilibrium constant for the complex coming apart. A word on the IC50: it is the midpoint of a concentration-inhibition curve.

For one assay, the target named is ALK (Homo sapiens (Human), UniProt Q9UM73). Put plainly: KINOMEscan kinase binding assay (DiscoveRx). The method, then: (§1) For most assays, kinase-tagged T7 phage strains were prepared in an E. coli host derived from the BL21 strain. E. coli were grown to log-phase and infected with T7 phage and incubated with shaking at 32° C. until lysis. The lysates were centrifuged and filtered to remove cell debris. The remaining kinases were produced in HEK-293 cells and subsequently tagged with DNA for qPCR detection. […] The liganded beads were blocked with excess biotin and washed with blocking buffer (SeaBlock (Pierce), 1% BSA, 0.05% Tween 20, 1 mM DTT) to remove unbound ligand and to reduce nonspecific binding. […] All reactions were performed in polystyrene 96-well plates in a final volume of 0.135 mL. […] The kinase concentration in the eluates was measured by qPCR.
ALK, sequence (Q9UM73 19-1620): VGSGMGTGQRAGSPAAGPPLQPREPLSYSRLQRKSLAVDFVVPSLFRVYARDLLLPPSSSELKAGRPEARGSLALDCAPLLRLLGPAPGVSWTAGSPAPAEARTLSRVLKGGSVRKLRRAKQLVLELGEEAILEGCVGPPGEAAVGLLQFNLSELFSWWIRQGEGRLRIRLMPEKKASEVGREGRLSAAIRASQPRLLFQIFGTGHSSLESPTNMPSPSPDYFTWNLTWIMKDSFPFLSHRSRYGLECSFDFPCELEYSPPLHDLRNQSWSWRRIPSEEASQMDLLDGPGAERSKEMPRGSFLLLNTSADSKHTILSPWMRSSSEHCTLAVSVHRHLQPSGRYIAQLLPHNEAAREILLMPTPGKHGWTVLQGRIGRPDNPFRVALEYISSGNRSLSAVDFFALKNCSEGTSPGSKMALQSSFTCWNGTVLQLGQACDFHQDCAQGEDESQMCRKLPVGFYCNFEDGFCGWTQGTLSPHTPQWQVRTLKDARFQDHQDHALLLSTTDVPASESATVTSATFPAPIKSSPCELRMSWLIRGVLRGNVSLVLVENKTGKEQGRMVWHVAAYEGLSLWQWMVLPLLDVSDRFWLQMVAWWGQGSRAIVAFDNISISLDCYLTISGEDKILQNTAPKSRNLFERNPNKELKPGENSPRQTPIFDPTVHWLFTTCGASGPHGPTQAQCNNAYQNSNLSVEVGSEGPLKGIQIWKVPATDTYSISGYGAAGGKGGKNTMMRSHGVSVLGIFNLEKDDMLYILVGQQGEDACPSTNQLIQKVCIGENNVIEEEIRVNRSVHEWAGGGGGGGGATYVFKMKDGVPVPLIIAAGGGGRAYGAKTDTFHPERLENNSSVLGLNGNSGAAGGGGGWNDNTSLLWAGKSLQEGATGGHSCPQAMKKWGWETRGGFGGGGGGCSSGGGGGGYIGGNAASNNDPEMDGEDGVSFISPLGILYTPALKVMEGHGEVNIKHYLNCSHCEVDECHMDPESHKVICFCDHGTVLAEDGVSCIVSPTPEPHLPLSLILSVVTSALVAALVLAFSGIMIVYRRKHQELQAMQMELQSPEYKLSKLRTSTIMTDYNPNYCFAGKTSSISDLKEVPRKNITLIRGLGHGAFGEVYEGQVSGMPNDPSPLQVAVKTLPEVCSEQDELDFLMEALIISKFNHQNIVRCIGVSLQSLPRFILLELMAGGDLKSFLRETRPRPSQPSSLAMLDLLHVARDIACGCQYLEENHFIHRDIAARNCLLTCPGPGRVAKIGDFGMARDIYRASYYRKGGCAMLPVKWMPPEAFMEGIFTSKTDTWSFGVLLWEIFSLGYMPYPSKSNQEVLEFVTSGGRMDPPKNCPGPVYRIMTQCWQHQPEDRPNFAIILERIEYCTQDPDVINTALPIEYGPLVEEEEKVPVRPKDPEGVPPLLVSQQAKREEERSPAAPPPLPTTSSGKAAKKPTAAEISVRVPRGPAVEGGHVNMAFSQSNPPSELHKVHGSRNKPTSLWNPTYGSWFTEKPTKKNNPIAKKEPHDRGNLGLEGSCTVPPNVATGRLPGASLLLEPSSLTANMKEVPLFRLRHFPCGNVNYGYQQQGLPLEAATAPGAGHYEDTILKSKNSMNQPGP

In a further assay the target is JAK2 (Homo sapiens (Human), UniProt O60674). Put plainly: KINOMEscan kinase binding assay (DiscoveRx). The method, then: as §1
A further assay addresses JAK1 (Homo sapiens (Human), UniProt P23458). Description: KINOMEscan kinase binding assay (DiscoveRx). The method, then:
(§2) Kinase binding assays were performed at DiscoveRx using the general KINOMEscan Kd Protocol (Fabian, M. A. et al., “A small molecule-kinase interaction map for clinical kinase inhibitors,” Nat. Biotechnol. 2005, 23(3):329-36). For most assays, kinase-tagged T7 phage strains were prepared in an E. coli host derived from the BL21 strain. E. coli were grown to log-phase and infected with T7 phage and incubated with shaking at 32° C. until lysis. The lysates were centrifuged and filtered to remove cell debris. The remaining kinases were produced in HEK-293 cells and subsequently tagged with DNA for qPCR detection. Streptavidin-coated magnetic beads were treated with biotinylated small molecule ligands for 30 minutes at room temperature to generate affinity resins for kinase assays. The liganded beads were blocked with excess biotin and washed with blocking buffer (SeaBlock (Pierce), 1% BSA, 0.05% Tween 20, 1 mM DTT) to remove unbound ligand and to reduce nonspecific binding. […] All reactions were performed in polystyrene 96-well plates in a final volume of 0.135 mL. […] The beads were then re-suspended in elution buffer (1×PBS, 0.05% Tween 20, 0.5 μM non-biotinylated affinity ligand) and incubated at room temperature with shaking for 30 minutes. The kinase concentration in the eluates was measured by qPCR.

For a further assay, the target named is JAK3 (Homo sapiens (Human), UniProt P52333). Description: KINOMEscan kinase binding assay (DiscoveRx). How it is done:
as §2

The next assay deals with PLK4 kinase (Homo sapiens (Human), UniProt O00444). Put plainly: KINOMEscan kinase binding assay (DiscoveRx). The settings on record: read-out: binding affinity with PLK4 kinase (Kd). How it is done: as §2
PLK4 kinase, sequence (O00444 whole entry): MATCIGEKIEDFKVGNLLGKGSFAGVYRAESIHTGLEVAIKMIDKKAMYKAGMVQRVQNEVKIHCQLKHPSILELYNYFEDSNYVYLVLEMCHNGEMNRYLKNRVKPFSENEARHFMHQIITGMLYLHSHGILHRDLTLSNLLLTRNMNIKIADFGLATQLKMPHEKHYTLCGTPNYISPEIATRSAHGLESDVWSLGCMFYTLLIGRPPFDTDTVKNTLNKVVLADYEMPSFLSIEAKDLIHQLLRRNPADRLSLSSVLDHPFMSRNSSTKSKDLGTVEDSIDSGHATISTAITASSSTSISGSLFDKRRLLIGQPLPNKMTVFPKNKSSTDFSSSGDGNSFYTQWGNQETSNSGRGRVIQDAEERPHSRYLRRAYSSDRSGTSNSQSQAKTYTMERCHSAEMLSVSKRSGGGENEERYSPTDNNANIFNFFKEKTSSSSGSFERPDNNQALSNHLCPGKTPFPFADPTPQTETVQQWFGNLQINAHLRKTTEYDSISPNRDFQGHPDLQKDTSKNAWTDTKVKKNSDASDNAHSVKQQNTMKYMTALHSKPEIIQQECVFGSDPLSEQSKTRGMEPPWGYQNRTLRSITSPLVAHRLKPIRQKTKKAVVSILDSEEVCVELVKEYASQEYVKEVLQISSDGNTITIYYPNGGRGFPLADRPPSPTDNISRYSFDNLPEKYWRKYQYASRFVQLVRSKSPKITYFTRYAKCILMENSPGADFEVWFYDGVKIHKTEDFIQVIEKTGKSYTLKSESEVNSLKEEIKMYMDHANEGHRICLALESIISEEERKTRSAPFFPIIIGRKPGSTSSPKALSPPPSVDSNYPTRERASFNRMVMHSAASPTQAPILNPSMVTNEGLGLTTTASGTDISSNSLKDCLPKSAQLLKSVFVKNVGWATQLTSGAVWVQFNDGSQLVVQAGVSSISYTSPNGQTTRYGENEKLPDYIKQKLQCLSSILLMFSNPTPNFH
A further assay addresses ROS1 (Homo sapiens (Human), UniProt P08922). Put plainly: KINOMEscan kinase binding assay (DiscoveRx). The method, then:
as §2

The next assay concerns the target TRKA (Homo sapiens (Human), UniProt P04629). Description: KINOMEscan kinase binding assay (DiscoveRx). The method, then: as §2
A further assay concerns the target TRKB (Homo sapiens (Human), UniProt Q16620). Put plainly: KINOMEscan kinase binding assay (DiscoveRx). How it is done: as §2
For assay [1], the system named is Colorectal cell line KM12 (harboring endogenous TPM3-TRKA fusion gene). Put plainly: KM12 cell proliferation assay (CellTiter-Glo). The settings on record: Homo sapiens, 72 hours incubation, read-out: KM 12 cell prolif. IC50. The format is cell-based. In general terms: In ATP-based viability assays light output follows the ATP content of the culture.
For assay [2], the system named is Essential thrombocythemia cell line SET-2 cells (harboring endogenous JAK2 point mutation). Description: SET-2 cell proliferation assay (CellTiter-Glo). Format: cell-based. The settings on record: Homo sapiens, 72 hours incubation, read-out: SET2 cell proli. IC50.
In assay [3] the test system is T cell lymphoma Karpas-299 cell line (harboring endogenous NPM-ALK fusion gene). Description: Karpas-299 cell proliferation assay (CellTiter-Glo). Particulars: Homo sapiens, 72 hours incubation, read-out: Karpas 299 cell proli. IC50. The format is cell-based.
The target in another assay is TPM3-TRKA (Homo sapiens (Human), UniProt P04629+P06753). Put plainly: TRKA phosphorylation assay in KM12 cells (western blot). The settings on record: 5 hours treatment, read-out: inhibition of autophosphorylation of TPM3-TRKA IC50. Format: cell-based. The method, then: (§3) Colorectal cell lines KM 12 (harboring endogenous TPM3-TRKA fusion gene) cells were cultured in DMEM medium, supplemented with 10% fetal bovine serum and 100 U/mL of penicillin/streptomycin. One million cells were seeded in 6-well plate for 24 hours before compounds treatment. Cells were washed with 1×PBS and collected after 5 hours treatment and lysed in RIPA buffer (50 mM Tris, pH 7.4, 150 mM NaCl, 1% NP-40, 0.5% Deoxycholate, 0.1% SDS) supplemented with 10 mM EDTA, Halt protease and phosphatase inhibitors (Thermo Scientific). Protein lysates (20 μg) were resolved on 4-12% Bolt Bis-Tris precasted gels with MES running buffer (Life Technologies), transferred to nitrocellulose membranes using Trans-Blot Turbo Transfer System (Bio-Rad) and detected with antibodies targeting phosphorylated TRK A (Cell Signaling Technology, Y496, Y680, Y681, clone C50F3; 1:1000 dilution), total TRK A (Santa Cruz Biotechnology, sc-11; clone C-14, 1:2000 dilution), phosphorylated AKT (Cell signaling, S473, D9E, #9271; 1:5000 dilution), total AKT (Cell Signaling Technology, 40D4; 1:2000 dilution), phosphorylated ERK (Cell Signaling Technology, Thr 202/204, D13.14.4E, #4370; 1:2000 dilution), total ERK (Cell Signaling Technology; 1:1000 dilution) and Tubulin (Sigma, T4026, 1:5000 dilution). […]
TPM3-TRKA, sequence (P04629 other isoform, or with tags, fused parts or gaps): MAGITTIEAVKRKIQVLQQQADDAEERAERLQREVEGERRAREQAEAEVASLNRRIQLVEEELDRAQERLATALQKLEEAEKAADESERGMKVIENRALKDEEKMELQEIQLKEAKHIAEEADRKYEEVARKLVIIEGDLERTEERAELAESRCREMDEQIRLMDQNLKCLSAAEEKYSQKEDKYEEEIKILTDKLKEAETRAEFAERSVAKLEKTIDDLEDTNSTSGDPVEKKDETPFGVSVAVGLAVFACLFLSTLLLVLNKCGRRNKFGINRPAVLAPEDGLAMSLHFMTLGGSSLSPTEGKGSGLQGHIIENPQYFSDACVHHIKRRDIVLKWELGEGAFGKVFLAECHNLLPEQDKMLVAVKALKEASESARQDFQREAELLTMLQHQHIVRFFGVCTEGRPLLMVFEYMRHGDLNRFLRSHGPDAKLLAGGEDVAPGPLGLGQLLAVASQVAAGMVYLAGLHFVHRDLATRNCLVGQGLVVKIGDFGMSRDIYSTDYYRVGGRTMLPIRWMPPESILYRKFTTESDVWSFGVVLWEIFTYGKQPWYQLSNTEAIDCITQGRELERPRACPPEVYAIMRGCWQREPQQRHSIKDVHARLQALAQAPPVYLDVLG
A general note: In western blotting, separated proteins are transferred to a membrane and probed.

The subject of a further assay is AKT. Put plainly: Downstream signal target phosphorylation assay in KM12 cells (western blot). The format is cell-based. The settings on record: Homo sapiens, 5 hours treatment, read-out: inhibition of phosphorylation of AKT IC50. The method, then: as §3
Another assay deals with ERK. The description is as above. The format is cell-based. The settings on record: Homo sapiens, 5 hours treatment, read-out: inhibition of phosphorylation of ERK IC50. How it is done: as §3
Another assay concerns KM12 cells. Description: Caspase activity assay / PARP western blot. Particulars: 72 hours. Format: cell-based. The method, then:
KM12 cells were maintained in DMEM medium supplemented with 10% fetal bovine serum and antibiotics. 500,000 cells were seeded in 12-well plate and various concentration of compounds were introduced for 72 hours For staurosporine treatment, 500 nM of STS were added at time of 60 hours and incubation of 12 hours as a positive control. All the cells were collected and washed with 1×PBS twice and then lysed in a lysis buffer (20 mM HEPES, 150 mM NaCl, 10 mM KCl, 5 mM EDTA, 1% NP40) supplemented with Halt protease and phosphatase inhibitors (Thermo Scientific). For caspase assays, around 20 μL (20 μg) of cell lysate were incubated with 20 μL of caspase3 glo reagent (Promega), measuring enzyme activity by the release of luminescence after 20 min incubation at 37° C. For western blotting, cell lysates were boiled and analyzed by SDS-PAGE/immunoblotting using PARP, or actin antibodies.

JAK1, sequence (P23458 whole entry): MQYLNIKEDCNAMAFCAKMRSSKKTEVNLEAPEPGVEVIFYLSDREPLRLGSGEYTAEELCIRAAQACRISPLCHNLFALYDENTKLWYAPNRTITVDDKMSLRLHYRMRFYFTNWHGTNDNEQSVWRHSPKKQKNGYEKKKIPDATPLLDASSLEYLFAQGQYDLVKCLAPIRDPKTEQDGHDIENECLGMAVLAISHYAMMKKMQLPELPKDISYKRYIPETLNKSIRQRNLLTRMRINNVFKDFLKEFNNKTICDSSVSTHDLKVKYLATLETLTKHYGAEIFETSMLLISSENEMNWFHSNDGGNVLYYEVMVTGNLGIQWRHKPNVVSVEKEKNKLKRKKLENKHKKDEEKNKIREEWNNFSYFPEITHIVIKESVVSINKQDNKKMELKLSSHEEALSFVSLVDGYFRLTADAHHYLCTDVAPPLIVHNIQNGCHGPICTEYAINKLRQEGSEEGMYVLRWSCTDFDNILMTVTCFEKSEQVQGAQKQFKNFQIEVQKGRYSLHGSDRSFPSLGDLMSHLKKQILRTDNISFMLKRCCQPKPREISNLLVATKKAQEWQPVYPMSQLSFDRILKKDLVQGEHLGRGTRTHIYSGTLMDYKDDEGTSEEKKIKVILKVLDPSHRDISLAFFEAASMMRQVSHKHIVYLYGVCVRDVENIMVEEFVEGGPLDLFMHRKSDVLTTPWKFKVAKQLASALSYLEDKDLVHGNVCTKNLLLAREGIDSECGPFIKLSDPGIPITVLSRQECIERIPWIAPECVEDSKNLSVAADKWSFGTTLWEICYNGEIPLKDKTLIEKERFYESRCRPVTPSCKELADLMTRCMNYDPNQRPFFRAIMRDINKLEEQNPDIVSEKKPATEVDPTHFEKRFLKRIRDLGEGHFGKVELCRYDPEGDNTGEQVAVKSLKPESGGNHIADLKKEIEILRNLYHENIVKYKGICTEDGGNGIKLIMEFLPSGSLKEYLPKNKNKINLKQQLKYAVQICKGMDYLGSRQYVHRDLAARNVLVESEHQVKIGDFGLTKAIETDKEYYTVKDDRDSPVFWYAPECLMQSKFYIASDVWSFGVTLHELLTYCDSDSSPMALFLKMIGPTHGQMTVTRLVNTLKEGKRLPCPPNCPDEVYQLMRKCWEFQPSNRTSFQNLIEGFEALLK
TRKA, sequence (P04629 33-796): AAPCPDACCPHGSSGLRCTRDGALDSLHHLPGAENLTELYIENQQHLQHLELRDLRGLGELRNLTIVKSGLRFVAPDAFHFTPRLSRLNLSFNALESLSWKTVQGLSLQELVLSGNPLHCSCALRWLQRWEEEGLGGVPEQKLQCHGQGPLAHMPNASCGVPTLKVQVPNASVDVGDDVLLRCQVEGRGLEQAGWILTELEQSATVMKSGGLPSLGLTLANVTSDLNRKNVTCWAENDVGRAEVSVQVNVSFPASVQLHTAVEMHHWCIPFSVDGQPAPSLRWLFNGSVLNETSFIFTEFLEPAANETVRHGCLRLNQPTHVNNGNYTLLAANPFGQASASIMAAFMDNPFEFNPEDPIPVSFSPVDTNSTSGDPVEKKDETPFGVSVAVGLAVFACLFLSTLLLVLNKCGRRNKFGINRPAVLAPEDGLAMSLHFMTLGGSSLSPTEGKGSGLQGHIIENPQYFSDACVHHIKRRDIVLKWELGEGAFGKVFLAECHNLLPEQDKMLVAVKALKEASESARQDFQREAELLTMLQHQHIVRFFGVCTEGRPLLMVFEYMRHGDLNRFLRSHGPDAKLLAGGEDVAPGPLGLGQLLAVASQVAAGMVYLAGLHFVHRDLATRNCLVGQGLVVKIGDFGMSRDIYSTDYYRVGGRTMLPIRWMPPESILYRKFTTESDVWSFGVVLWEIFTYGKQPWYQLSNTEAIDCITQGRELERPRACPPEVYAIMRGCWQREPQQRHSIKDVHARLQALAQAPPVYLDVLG

For `CN1Cc2cc(F)ccc2OCCNC(=O)c2cnn3ccc1nc23` [Example 20, 11-fluoro-14-methyl-6,7,13,14-tetrahydro-1,15-ethenopyrazolo[4,3-f][1,4,8,10]benzoxatriazacyclo-tridecin-4(5H)-one], the Kd at ALK was 80 nM; on JAK2, 4.8 nM; at JAK1, over 1000 nM; on JAK3, 120 nM; at PLK4 kinase, 2.9 nM; at ROS1, 21 nM. The Kd on TRKA stood at 0.031 nM; on TRKB, 0.18 nM. Besides, the IC50 in [1] turned out to be 0.86 nM; in assay [2], 2000 nM; in assay [3] it was 1000 nM; on TPM3-TRKA, 1.07 nM; with AKT it was 2.8 nM; in the assay with ERK, 2 nM. Besides, in the assay on KM12 cells, the “apoptosis of KM 12 cells” value is “induced apoptosis”.
